Results published in patent US5442065A, “Synthesis of tetrahydroquinoline enediyne core analogs of dynemicin” (Board of Regents, The University of Texas System, priority 1993, dated 1995).

B1: neocarzinostatin: clinically tested compound; positive reference compound (protein, UniProt P0A3R9 35-147, looked up)
Neocarzinostatin: AAPTATVTPSSGLSDGTVVKVAGAGLQAGTAYDVGQCAWVDTGVLACNPADFSSVTADANGSASTSLTVRRSFEGFLFDGTRWGTVDCTTAACQVGLSDAAGNGPEGVAISFN
modifications: enediyne chromophore

Tested on: M109 tumor cells
Experiment: M109 solid tumor assay, five injections every two days (compared with neocarzinostatin and esperamicin A1)
Assay type: in vivo, female mice
Conditions: for T/C value: reference compounds, dose not given; for lifespan and tumor growth delay (in words): standard compounds, solid tumor
Description: This assay involves development of a solid tumor in a mouse by injection of M109 tumor cells under the skin of the animal. Solid tumors, typically elliptical in shape, rapidly develop on the flank of the mouse at the site of injection. Progress of the tumor is determined by its size which is measured across each axis of the elongated mass. Straightforward computations of tumor volume combined with an assumed density of 1 g per cc yields a weight estimate which is accepted as an indication of the progress of tumor growth. Increase in lifespan (T/C values) of the animal and delay in tumor growth (T-C) to reach a predetermined size (typically measured as weight of the tumor) are generally accepted by those of skill in the art as endpoint parameters. […] In the particular M109 assay described and used to test the novel dynemicin analogs, the median time to establish a baseline tumor burden (arbitrarily set at 1 g tumor) was 4 days.
A standard M109 solid tumor assay was set up to compare compound 5582 and 4229 with neocarzinostatin and esperamicin A1. Female mice were injected subcutaneously with 0.1 mL of a 0.2% brei of M109 tumor cells, prepared from 2 g tumor per 100 mL PBS (phosphate buffered saline).
In another test, compounds 5582 and 4229 were evaluated in mice implanted with M109 on a 5 injection per day every two days schedule beginning on day 1 post implant and compared with SC tumored mice.

Molecule	T/C value [days]	lifespan and tumor growth delay (in words)
esperamicin A1	11	increased lifespan and delay in tumor growth
B1	19.3	increased lifespan and delay in tumor growth
